Test results from ChEMBL document CHEMBL1201862, “PubChem BioAssay data set” (2004).
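Results reflect a 48-hour exposure of cells in 96-well plates to compound at five concentrations. The concentration for 50% growth inhibition is given as GI50.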 The source made the active and inactive calls. Rule as the data show it: active = GI50 up to about 1.1 µM and inactive = higher.

What was measured:
Assay in all cases: growth of human tumour cells (NCI), 48 h
[1] = tested on: HL-60
[2] = tested on: TK-10
[3] = tested on: A498
[4] = tested on: DMS-273
[5] = tested on: EKVX
[6] = tested on: XF498
[7] = tested on: HCT-15
[8] = tested on: MOLT-4
[9] = tested on: LOX IMVI
[10] = tested on: SF-539
[11] = tested on: ACHN
[12] = tested on: UO-31
[13] = tested on: U-251
[14] = tested on: SF-295
[15] = tested on: CCRF-CEM
[16] = tested on: SF-268
[17] = tested on: HOP-18
[18] = tested on: DLD-1
[19] = tested on: OVCAR-8
[20] = tested on: SN12C
[21] = tested on: 786-0
[22] = tested on: SW-620
[23] = tested on: CAKI-1
[24] = tested on: SK-OV-3
[25] = tested on: HT-29
[26] = tested on: HCC 2998
[27] = tested on: COLO 205
[28] = tested on: SR
[29] = tested on: KM12
[30] = tested on: KM-20L2
[31] = tested on: NCI-H23
[32] = tested on: DMS-114
[33] = tested on: RPMI-8226
[34] = tested on: OVCAR-3
[35] = tested on: M19-MEL
[36] = tested on: LXFL 529
[37] = tested on: SK-MEL-5
[38] = tested on: SK-MEL-2
[39] = tested on: K562
[40] = tested on: NCI-H522
[41] = tested on: HOP-92
[42] = tested on: SNB-75
[43] = tested on: OVCAR-5
[44] = tested on: SNB-19
[45] = tested on: M14
[46] = tested on: OVCAR-4
[47] = tested on: A549
[48] = tested on: NCI-H226
[49] = tested on: UACC-257
[50] = tested on: SK-MEL-28
[51] = tested on: Malme-3M
[52] = tested on: UACC-62
[53] = tested on: HCT-116
[54] = tested on: IGROV-1
[55] = tested on: RXF 393
[56] = tested on: NCI-H460
[57] = tested on: HOP-62

Measured: GI50

COc1cccc2c1CCc1ccccc1CC2=O
> 100 µM: [7]
inactive: [1] > 100 µM | [2] > 100 µM | [3] > 100 µM | [4] > 100 µM | [5] > 100 µM | [6] > 100 µM | [8] > 100 µM | [9] > 100 µM | [10] > 100 µM | [11] > 100 µM | [12] > 100 µM | [13] > 100 µM | [14] > 100 µM | [15] > 100 µM | [16] > 100 µM | [17] > 100 µM | [18] > 100 µM | [19] > 100 µM | [20] > 100 µM | [21] > 100 µM | [22] > 100 µM | [23] > 100 µM | [24] > 100 µM | [25] > 100 µM | [26] > 100 µM | [27] > 100 µM | [28] > 100 µM | [29] > 100 µM | [30] > 100 µM | [31] > 100 µM | [32] > 100 µM | [33] > 100 µM | [34] > 100 µM | [35] > 100 µM | [36] > 100 µM | [37] > 100 µM | [38] > 100 µM | [39] > 100 µM | [40] > 100 µM | [41] > 100 µM | [42] > 100 µM | [43] > 100 µM | [44] > 100 µM | [45] > 100 µM | [46] 39.2 µM | [47] > 100 µM | [48] > 100 µM | [49] > 100 µM | [50] > 100 µM | [51] > 100 µM | [52] > 100 µM | [53] > 100 µM | [54] > 100 µM | [55] > 100 µM | [56] > 100 µM

CCCNCC(=O)O[C@]1(CC)C(=O)OCc2c1cc1n(c2=O)Cc2cc3ccccc3nc2-1
inactive: [2] 4.43 µM | [5] 25.1 µM | [18] 2.07 µM | [36] 1.42 µM | [38] 1.13 µM | [50] 2.31 µM
active: [1] < 0.01 µM | [3] 0.163 µM | [4] < 0.01 µM | [6] < 0.01 µM | [8] < 0.01 µM | [9] 0.0134 µM | [10] 0.0118 µM | [11] < 0.01 µM | [12] 0.0637 µM | [13] < 0.01 µM | [14] < 0.01 µM | [15] < 0.01 µM | [16] < 0.01 µM | [57] < 0.01 µM | [17] 0.123 µM | [19] 0.161 µM | [20] < 0.01 µM | [21] < 0.01 µM | [24] 0.0679 µM | [25] 0.274 µM | [26] 0.661 µM | [27] 0.908 µM | [28] < 0.01 µM | [29] 0.528 µM | [30] 0.416 µM | [31] 0.0149 µM | [32] 0.0187 µM | [33] 0.0498 µM | [34] 0.457 µM | [35] 0.194 µM | [37] 0.119 µM | [39] 0.181 µM | [40] 0.0271 µM | [41] 0.325 µM | [42] 0.0429 µM | [43] 0.129 µM | [44] 0.0364 µM | [45] 0.0681 µM | [46] 0.69 µM | [47] 0.0322 µM | [48] 0.0121 µM | [49] 0.163 µM | [51] 0.334 µM | [52] < 0.01 µM | [53] 0.164 µM | [54] 0.325 µM | [55] 0.0397 µM | [56] < 0.01 µM
